The text below walks through data of patent US20230068020A1, “MACROLIDE COMPOUND AND ITS USE OF TREATMENT CHRONIC RESPIRATORY DISEASE” (priority 2020, published 2023).

Format in all cases: cell-based
Series [1] deals with THP-1 cell. In words: Cell viability (LD50) in THP-1 differentiation test. As to conditions: human. The method, then:
The medium lethal dose (LD50) is the dosage of a compound that reduces the cell viability by 50%, and is determined using non-linear logistic regression.

The next series has as its system BEAS-2B cell. Description: Cell viability (LD10) in BEAS-2B IL-8 test. Particulars: BEAS-2B cell viability. The text has this:
The lethal dose (LD10) is the dosage of a compound that reduces the cell viability by […], and is estimated from non-linear logistic regression.

The subject of series [2] is THP-1 cell. Description: Differentiation of monocyte to macrophage in THP-1 cell line. Particulars: Homo sapiens; for EC50: THP-1 differentiate to macrophage, PMA, 96 hrs incubation; for Emax: ratio of best effect of compound to that of erythromycin 100 uM, THP-1 differentiation, read-out: Maximal activation level. The procedure:
The THP-1 cell line was purchased from ATCC (American Type Culture Collection, Manassas, Va.). Cells were maintained in growth medium (RPMI-1640) with supplemented with 10% heat inactivated bovine serum, 100× Glutamax medium and 0.05 mM β-Mercaptoethanol at 37° C. under 5% CO2. Compounds were dissolved in 0.1% DMSO. Erythromycin was used as a positive control.
For the assessment of the effect of compounds of the present invention on differentiation of monocyte to macrophage in THP-1 cell line, cells were collected and centrifuged at 900 rpm for 4 minutes. The cell density was adjusted to 2.5×10^5/mL. cell suspension of 400 μL was added to each well of 48-well plate following the plate layout. PMA 1 mg, a compound can induce monocyte differentiation, was dissolved in 10 mL DMSO to form 100 μg/mL solution and aliquote it into 1 mL per vial. 1 mL solution can be further aliquoted into 10 μL per vial and stored the aliquots at −20° C. Make 10-fold dilution of PMA with DMSO and then 500-fold dilution with complete medium. 50 μL solution were then added to each well of 48-well plate following the plate layout. Erythromycin and compounds of examples at stock concentration of 10 mM was serially diluted at 10-fold in DMSO. 50 μL solution was added to each well of 48-well plate following the plate layout. After 96 hrs incubation at 37° C., 5% CO2, the plate was washed with DPBS for three times to remove non-adherent cells for three times. Complete medium 180 μL and alarmar blue 20 μL was added to each well. The fluorescent intensity was read at excitation 530 nm and emission 590 nm using PerkinElmer Victor3 after 3 hours plate incubation.
The differentiation activity of compounds of Examples is compared to that of 100 μM erythromycin and the results are shown in FIG. 1 and Table 3.

Series [3] deals with IL-8 expression in BEAS-2B cell. In words: LPS induced IL-8 release by BEAS-2B (ELISA). As to conditions: for Maximum Inhibition: IL-8 expression in BEAS-2B cells, LPS; for IC10: concentration inhibiting IL-8 production on BEAS-2B by 10%, LPS 20 μg/mL. The method, then: The inhibitory effect of compounds of Examples on the IL-8 expression in BEAS-2B cell was tested using the following method. BEAS-2B was purchased from ATCC (American Type Culture Collection, Manassas, Va.). Cells were maintained in growth medium (LHC-9) and cultured at 37° C. under 5% CO2. Compounds were dissolved in 0.1% DMSO. Erythromycin was used as a positive control.
For the assessment of the effect of compounds of Examples on IL-8 expression inhibition in BEAS-2B cell line, cells were plated in 24 well plate at a density of 100,000/mL, in a final volume of 1 mL of assay medium. Cells were incubated at 37° C., 5% CO2 for 1 day. After the incubation, compounds were added at day 2 and LPS was added at day 3. A compound source plate was prepared by triplicate five-point 10-fold or 2-fold serial dilutions in DMSO, beginning at 1 mM (final top concentration of compounds of Examples in the assay was 100 μM and the DMSO was 0.1%). The positive control consisted of cells treated with 100 μM erythromycin and negative control was consisted of 0.1% DMSO treated cells. LPS stock solution at 5 mg/mL was made by dissolving 10 mg of LPS powder into 2 mL of ddH2O and aliquoted to 100 μL per vial. Final concentration of LPS in the assay was […] by making 125-fold dilution of stock solution with medium.
Specific immunoreactivity for IL-8 in culture supernatants were measured by a commercially available ELISA kits (R&D Systems, Inc., Minneapolis, Minn.). Each sample was assayed in duplicates as recommended by the manufacture. The concentration of compounds of Examples inhibiting IL-8 production on BEAS-2B by 10% was estimated from a 4-parametric of the normalized dose response curve. (IC10)
(In general: In an ELISA, binding on a coated surface is turned into a signal by an enzyme label.)

In series [4] the test system is Streptococcus pneumoniae ATCC 49619. Description: Antibacterial activity, agar dilution MIC. As to conditions: ATCC49619, 20-24 hrs incubation, read-out: minimum inhibitory concentration MIC. The procedure:
(§1) The antibacterial activity of Erythromycin and compounds of examples were evaluated by the agar dilution method, following the guidelines of the CLSI. […] Briefly, bacteria were grown overnight in adapted media (MHIIA with 5% of sheep blood for Streptococcus pneumoniae and Haemophilus influenzae, and MHIIA for the other bacteria strains) at 35° C., 5% CO2.
(§2) Cultures were centrifuged at 3000×g for 15 min. Pellets were diluted with 5 mls cold PBS and the OD600nm was adjusted to 10^8 CFU.mL^−1 with a spectrometer. Bacteria were then added to 96-well test plates. Compounds were diluted in DMSO in a 2 fold steps from 20 mg/ml in DMSO in 96 well plated and transferred to the test plate. During the incubation, the plate was maintained at 35° C., 5% CO2.
(§3) The MICs for Erythromycin and compounds of examples were determined after 20-24 hrs incubation.

For series [5], the system named is Enterococcus faecalis ATCC 29212. In words: Antibacterial activity, agar dilution MIC. As to conditions: ATCC29212, 20-24 hrs incubation, read-out: minimum inhibitory concentration MIC. The procedure: as §1, §2, §3
The subject of series [6] is Acinetobacter baumanii ATCC 17978. Description: Antibacterial activity, agar dilution MIC. Particulars: Acinetobacter baumannii, ATCC17978, 20-24 hrs incubation, read-out: minimum inhibitory concentration MIC. The method, then:
as §1, §2, §3

The test system of series [7] is Streptococcus pneumoniae ATCC 6301. Description: Antibacterial activity, agar dilution MIC. As to conditions: ATCC6301, 20-24 hrs incubation, read-out: minimum inhibitory concentration MIC. The method, then: as §1, §2, §3
Series [8] has as its system Streptococcus pyogenes ATCC BAA-572. In words: Antibacterial activity, agar dilution MIC. Particulars: ATCCBAA572, 20-24 hrs incubation, read-out: minimum inhibitory concentration MIC. The procedure: as §1, §2, §3
In general terms: In agar dilution the substance is mixed into plates at graded concentrations.

Series [9] relates to Staphylococcus aureus NRS 384. In words: Antibacterial activity, agar dilution MIC. As to conditions: NRS384, 20-24 hrs incubation, read-out: minimum inhibitory concentration MIC. The procedure:
as §1, §2, §3

Series [10] deals with Acinetobacter baumannii ATCC-BAA-1605. In words: Antibacterial activity, agar dilution MIC. As to conditions: ATCCBAA1605, 20-24 hrs incubation, read-out: minimum inhibitory concentration MIC. The method, then:
as §1, §2, §3

Series [11] deals with Haemophilus influenzae ATCC 49247. In words: Antibacterial activity, agar dilution MIC. As to conditions: ATCC49247, 20-24 hrs incubation, read-out: minimum inhibitory concentration MIC. The method, then: as §1, §2, §3
The subject of series [12] is Staphylococcus aureus ATCC 29213. Description: Antibacterial activity, agar dilution MIC. Particulars: ATCC29213, 20-24 hrs incubation, read-out: minimum inhibitory concentration MIC. The procedure: as §1, §2, §3
Series [13] concerns Moraxella catarrhalis ATCC 43617. In words: Antibacterial activity, agar dilution MIC. Particulars: ATCC43617, 20-24 hrs incubation, read-out: minimum inhibitory concentration MIC. The method, then: as §1, §2, §3

What is called EC50 is the midpoint of the concentration-response curve. A lower EC50 goes with an effect from little substance. What is called IC10 is the concentration at which the effect reaches the 10% level. A lower IC10 goes with greater potency.

For the compound `CC[C@H]1OC(=O)[C@H](C)[C@@H](OC2CC(C)(OC)C(O)C(C)O2)[C@H](C)[C@@H](OC2CC(N(C)C)CC(C)O2)[C@@](C)(O)C[C@@H](C)/C(=N\OCOCCOC)[C@H](C)[C@@H](O)[C@]1(C)O` (some centres unmarked) [LY101-39], the LD50 with THP-1 cell [1] is 90.0 ± 18.4 µM. Further, the LD10 in the series on BEAS-2B cell was found to be 100 µM. This compound gave an EC50 in the series with THP-1 cell [2] of 10.1 ± 2.2 µM. For the same compound, the Emax in the series with THP-1 cell [2] turned out to be 740 ± 80%. In addition, the “Maximum Inhibition” value in series [3] was determined as 35%. The compound further came in with an IC10 in series [3] of 20 µM. Further, the MIC in [4], in [5], in series [6], in [7], in [8] and in series [9] was greater than 128 µg/mL in each case. Besides, the MIC in [10], in [11], in series [12] and in [13] was greater than 128 µg/mL throughout.

Consider `CC[C@H]1OC(=O)[C@H](C)[C@@H](OC2CC(C)(OC)C(O)C(C)O2)[C@H](C)[C@@H](OC2CC(N(C)C)CC(C)O2)[C@@](C)(O)C[C@@H](C)[C@H](O)[C@H](C)[C@@H](O)[C@]1(C)O` (some centres unmarked) [LY101-45], for which the LD50 with THP-1 cell [1] came out at 24.2 ± 5.1 µM. In the series with BEAS-2B cell, this compound yielded an LD10 of 15 µM. This compound also yielded an EC50 with THP-1 cell [2] of 1.5 ± 0.7 µM. In the series on THP-1 cell [2], the Emax amounted to 530 ± 60%. Also, in series [3], the “Maximum Inhibition” value turned out to be 40%. Besides, in [3], the IC10 stood at 1 µM. Moreover, the MIC in [4], in series [5], in series [6], in [7], in [8] and in [9] was greater than 128 µg/mL each time. For the same compound, the MIC in series [10], in series [11], in series [12] and in [13] was greater than 128 µg/mL in each case.

On to `CC[C@H]1OC(=O)[C@H](C)[C@@H](OC2CC(C)(OC)C(O)C(C)O2)[C@H](C)[C@@H](OC2CC(N(C)C(C)=O)CC(C)O2)C(C)(O)C[C@@H](C)C(=O)[C@H](C)[C@@H](O)[C@]1(C)O` (stereo in doubt) [LY101-22, N-((2S,4S,6R)-2-(((3R,4S,5S,6R,7R,9R,11R,12R,13S,14R)-14-ethyl-7,12,13-trihydroxy-4-(((2R,4R,5S,6S)-5-hydroxy-4-methoxy-4,6-dimethyltetrahydro-2H-pyran-2-yl)oxy)-3,5,7,9,11,13-hexamethyl-2,10-dioxooxacyclotetradecan-6-yl)oxy)-6-methyltetrahydro-2H-pyran-4-yl)-N-methylacetamide], for which, in the series with THP-1 cell [1], the LD50 is 125 ± 7.1 µM. Moreover, the LD10 in the series on BEAS-2B cell amounted to 100 µM. In the series on THP-1 cell [2], this compound displayed an EC50 of 12.1 ± 2.7 µM. Moreover, the Emax with THP-1 cell [2] was determined as 790 ± 50%. Besides, in series [3], the “Maximum Inhibition” value is on record as 33%. Moreover, the “IL-8 inhibitory activity compared with erythromycin” value in [3] (at 100 μM concentration, BEAS-2B) is on record as “more potent inhibitory activity than erythromycin”. This compound also had a 10% effect concentration (IC10) in series [3] of 10 µM. Moreover, the MIC in series [4], in series [5], in series [6], in series [7], in series [8] and in series [9] was greater than 128 µg/mL throughout. The MIC in [10], in series [11], in series [12] and in series [13] was greater than 128 µg/mL each time.

In turn, `CC[C@H]1OC(=O)[C@H](C)[C@@H](O[C@H]2C[C@@](C)(OC)[C@@H](O)[C@H](C)O2)[C@H](C)[C@@H](O[C@H]2C[C@@H](NC)C[C@@H](C)O2)[C@@](C)(O)C[C@@H](C)C(=O)[C@H](C)[C@@H](O)[C@]1(C)O` [LY101-25, (3R,4S,5S,6R,9R,11R,12R,13S,14R)-14-ethyl-7,12,13-trihydroxy-4-(((2R,4R,5S,6S)-5-hydroxy-4-methoxy-4,6-dimethyltetrahydro-2H-pyran-2-yl)oxy)-3,5,7,9,11,13-hexamethyl-6-(((2S,4S,6R)-6-methyl-4-(methylamino)tetrahydro-2H-pyran-2-yl)oxy)oxacyclotetradecane-2,10-dione] yielded an LD50 in the series on THP-1 cell [1] of 21.1 ± 5.3 µM. In the series on BEAS-2B cell, this compound yielded an LD10 of 15 µM. Also, in the series with THP-1 cell [2], the 50% effective concentration (EC50) was determined as 1 ± 0.3 µM. In the series with THP-1 cell [2], the Emax was 540 ± 110%. For the same compound, the “Maximum Inhibition” value in series [3] worked out at 53%. The 10% effect concentration (IC10) in [3] turned out to be 1 µM. Moreover, the MIC in series [4], in series [5], in series [6], in [7], in series [8] and in series [9] was greater than 128 µg/mL each time. For the same compound, the MIC in series [10], in series [11], in series [12] and in [13] was greater than 128 µg/mL each time.
